Earlier results as cited in patent US20090117102A1, “Methods and compositions using CD3 agonists” (priority 2004, published 2009).

Assays:
[1] = test system: T cell; conditions: Van Wauve, J. Immunol. 124 (1980)
[2] = test system: T cell; conditions: Wong Transplantation 50 (1990)

For “OKT3: murine monoclonal antibody specific for the human CD3 antigen, first monoclonal antibody approved by the FDA”, the “T cell mitogen activity” value [1] is given as “potent T cell mitogen” and the “T cell killer activity” value [2] is given as “potent T cell killer”.
